Measured values published in US8759400B2, “Histone deacetylase inhibitors for enhancing activity of antifungal agents” (MethylGene Inc., priority 2005, dated 2014).
Read-outs that look alike come from different tables or passages of the source. Values belong to the molecule of their own block, whether it stands above or below them.

Experiments:
[1] = test system: C. glabrata (ATCC 90030); experiment: MIC80 and checkerboard synergy with antifungal agents; assay type: cell-based, Candida glabrata; details: for MIC50: compound alone; for MIC50 / conc. for 4-fold synergy (24 hr): C. glabrata (ATCC 90030)
[2] = test system: HMEC; experiment: Mammalian cytotoxicity, MTT reduction
[3] = test system: A. fumigatus ATCC 1022; experiment: MIC80 and checkerboard synergy, broth microdilution (NCCLS M38-A); assay type: cell-based, Aspergillus fumigatus; details: 48 hours
[4] = test system: HDAC; experiment: HDAC inhibitory activity in fungal protoplasts (Fluor-de-Lys); assay type: cell-based, Candida albicans; details: C. albicans protoplasts; for HDAC inhibition, per cent in parentheses beside IC50 >20: concentration not given
Method: Protoplasts of C. albicans and C. glabrata are prepared by the […] method of Franzusoff et al.

[5] = test system: C. albicans (ATCC 90028); experiment: MIC80 and checkerboard synergy with antifungal agents; assay type: cell-based, Candida albicans; details: Candida albicans
[6] = Nakaseomyces glabratus, ATCC90030

- MIC50 [1, 6]: 6.25 µg/mL
Compound: O=C(Cc1ccc(CCCCCc2ccccc2)cc1)NO

- MIC50 [1, 6]: > 25 µg/mL
Compound: O=C(Cc1ccc(CCCCc2ccc(C(F)(F)F)cc2)cc1)NO

- MIC50 [1, 6]: 32 µg/mL
Compound: O=C(Cc1cccc(CCCCc2ccccc2)c1)NO

- MIC50 [1, 6]: > 25 µg/mL
Compound: O=C(Cc1ccc(CCC#Cc2ccc3nonc3c2)cc1)NO

- MIC50 [1, 6]: > 25 µg/mL
Compound: O=C(Cc1ccc(CCCCc2ccc3c(c2)OCO3)cc1)NO

- MIC50 [1, 6]: 12.5 µg/mL
Compound: O=C(Cc1ccc(CCCCc2ccccc2C(F)(F)F)cc1)NO

- MIC50 [1, 6]: 12.5 µg/mL
Compound: O=C(Cc1ccc(CCCCc2cccc(C(F)(F)F)c2)cc1)NO

- MIC50 [1, 6]: 3.1 µg/mL
Compound: O=C(Cc1ccc(CCCCc2cc(F)c(F)cc2F)cc1)NO

- MIC50 [1, 6]: > 25 µg/mL
Compound: O=C(Cc1ccc(CCCCc2ccc3[nH]ccc3c2)cc1)NO

Compound: O=C(CCCCCC/C(=N\O)c1ccc(-c2ccccc2)cc1)NO
- MTT HMEC [2]: 6 µM

Compound: O=C(NO)c1ccc(CCCCCc2ccccc2)cc1 [Cpd 3]
- MTT HMEC [2]: 9 µM

Compound: COC(c1ccc(N(C)C)cc1)C(C)/C=C(C)/C=C/C(=O)NO (centres unmarked) [Cpd 10]
- MTT HMEC [2]: 50 µM

Compound: CC(/C=C/C(=O)NO)=C\C(C)Cc1ccc(N(C)C)cc1 (centres unmarked) [Cpd 12]
- MTT HMEC [2]: 44 µM
- conc. for 4-fold synergy ([3]; with ketoconazole, A. fumigatus ATCC 1022): 0.125 µg/mL

- HDAC inhibition IC50 [4]: > 20 µg/mL
- HDAC inhibition, per cent in parentheses beside IC50 >20 [4]: 18%
Compound: C[C@H](/C=C/C=C/C(=O)NO)Oc1ccc(-c2ccccc2)cc1 [Cpd 15]

Compound: O=C(NO)c1ccc(CCCC(O)c2ccc3ccccc3c2)cc1 (centres unmarked) [Cpd 16]
- MTT HMEC [2]: 25 µM

Compound: O=C(/C=C/c1ccc(CNc2cccc(Cl)c2)cc1)NO [Cpd 18]
- HDAC inhibition IC50 [4]: ~16 µg/mL

Compound: Nc1ccc(-c2cccs2)cc1-c1cccs1 [Cpd 19]
- conc. for 4-fold synergy (24 hr) ([1]; with ketoconazole): 0.5 (24 hr) μg/ml

- HDAC inhibition IC50 [4]: > 20 µg/mL
- HDAC inhibition, per cent in parentheses beside IC50 >20 [4]: 16%
Compound: O=C(Cc1ccccc1)NC(=S)Nc1ccc(Nc2ccnc3ccsc23)cc1 [Cpd 20]
- MTT HMEC [2]: 50 µM

Compound: N#Cc1ccc(-c2ccc(OCCC(=O)NO)cc2)cc1 [Cpd 21]
- MTT HMEC [2]: 50 µM

Compound: O=C(NO)c1ccc(CN2c3ccccc3NC(=O)[C@H]2Cc2ccc3ccccc3c2)cc1 [Cpd 22]
- MTT HMEC [2]: 8 µM
- HDAC inhibition IC50 [4]: ~0.6 µg/mL

- HDAC inhibition IC50 [4]: ~0.6 µg/mL
Compound: O=C(NO)c1ccc(CN2c3ccccc3NC(=O)[C@H]2Cc2cccc(C(F)(F)F)c2)cc1 [Cpd 23]

Compound: CC(Cc1ccc(C(C)(C)C)cc1)CN1C[C@@H](C)O[C@@H](C)C1 (some centres unmarked) [Fenpropimorph, fenpropimorph, reference compound]
- MIC ([1]; Nakaseomyces glabratus, ATCC90030, fenpropimorph alone, C. glabrata, read-out: Fenpropimorph MIC): 6.25 µg/mL

Compound: C[C@@H]([C@H](N)C(=O)N[C@H](C(=O)O)[C@H]1O[C@@H](n2ccc(=O)[nH]c2=O)[C@H](O)[C@@H]1O)[C@H](O)c1ccc(O)cn1 [Nikkomycin, nikkomycin, reference compound]
- MIC ([5]; ATCC90028, read-out: Nikkomycin MIC): 100 µg/mL

- MIC ([5]; ATCC90028, terbinafine alone, C. albicans, read-out: Terbinafine MIC): 0.39 µg/mL
Compound: CN(C/C=C/C#CC(C)(C)C)Cc1cccc2ccccc12 [Terbinafine, terbinafine, reference compound]

Compound: CC(/C=C/C(=O)NO)=C\C(C)Cc1ccc(N(C)C)cc1 (centres unmarked) [drawing 125]
- MTT HMEC [2]: 44 µM

Compound: CC(/C=C/C(=O)NO)=C\C(C)Cc1ccc(N(C)C)cc1 (centres unmarked) [drawing 131]
- MTT HMEC [2]: 44 µM
- conc. for 4-fold synergy (24 hr) ([1]; with itraconazole): 1.56 (24 hr) μg/ml

Compound: CC(/C=C/C(=O)NO)=C\C(C)Cc1ccc(N(C)C)cc1 (centres unmarked) [drawing 137]
- MTT HMEC [2]: 44 µM

Compound: CC(/C=C/C(=O)NO)=C\C(C)Cc1ccc(N(C)C)cc1 (centres unmarked) [drawing 143]
- MTT HMEC ([2]; Table 9 head): 4.4e-05 µM

Compound: O=C(Cc1ccc(CCCCc2ccccc2)cc1)NO [drawing 144]
- MTT HMEC ([2]; Table 9 head): 1.3e-05 µM

Compound: O=C(Cc1ccc(CCCc2ccccc2)cc1)NO [drawing 145]
- MTT HMEC ([2]; Table 9 head): 4.7e-05 µM

Compound: O=C(CCc1ccc(CCCc2ccccc2)cc1)NO [drawing 146]
- MTT HMEC ([2]; Table 9 head): 4e-05 µM

Compound: O=C(CCc1ccc(CCc2ccccc2)cc1)NO [drawing 147]
- MTT HMEC ([2]; Table 9 head): 1e-05 µM

Compound: O=C(Cc1ccc(CCCCc2ccccc2)cc1)NO [drawing 149]
- conc. for 4-fold synergy ([3]; with fluconazole, A. fumigatus ATCC 1022): >1 µg/mL

Compound: O=C(Cc1ccc(CCCCc2ccccc2)cc1)NO [drawing 151]
- conc. for 4-fold synergy ([3]; with itraconazole, A. fumigatus ATCC 1022): >1 µg/mL

Compound: O=C(Cc1ccc(CCCCc2ccccc2)cc1)NO [drawing 153]
- conc. for 4-fold synergy ([3]; with voriconazole, A. fumigatus (ATCC 1022)): 1 µg/mL
